“And” between values parts separate entries of the source, which are not always exact repeats. Equal values may be shown once. Toxic doses and inconclusive results are not listed. Rule for the calls: active = survival T/C of 150% or more; inactive = T/C below 125% in these data.
System: BDF1 mice, P388 leukemia ip, median survival T/C
Assay: NCI In Vivo Anticancer Drug Screen. Data for tumor model P388 Leukemia (intraperitoneal) in B6D2F1 (BDF1) mice
Details: endpoint: median survival time, higher = longer survival
How it was run: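 Antitumour effect was judged in vivo: survival in drug-treated mice, normalised to that of vehicle-dosed controls, gives the reported T/C.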

[1] = dose: 400.0 mg/kg/injection, schedule: Q01DX009 (ip), vehicle: saline with Tween-80
[2] = dose: 12.5 mg/kg/injection, schedule: Q01DX009 (ip), vehicle: saline with Tween-80
[3] = dose: 100.0 mg/kg/injection, schedule: Q04DX003 (ip), vehicle: saline with Tween-80
[4] = dose: 200.0 mg/kg/injection, schedule: Q04DX003 (ip), vehicle: saline with Tween-80
[5] = dose: 400.0 mg/kg/injection, schedule: Q04DX003 (ip), vehicle: saline with Tween-80
[6] = dose: 50.0 mg/kg/injection, schedule: Q01DX009 (ip), vehicle: saline with Tween-80
[7] = dose: 100.0 mg/kg/injection, schedule: Q01DX009 (ip), vehicle: saline with Tween-80
[8] = dose: 100.0 mg/kg/injection, schedule: Q01DX009 (ip), vehicle: saline
[9] = dose: 100.0 mg/kg/injection, schedule: Q04DX003 (ip), vehicle: saline
[10] = dose: 200.0 mg/kg/injection, schedule: Q01DX009 (ip), vehicle: saline
[11] = dose: 200.0 mg/kg/injection, schedule: Q04DX003 (ip), vehicle: saline
[12] = dose: 400.0 mg/kg/injection, schedule: Q04DX003 (ip), vehicle: saline
[13] = dose: 200.0 mg/kg/injection, schedule: Q01DX009 (ip), vehicle: saline with Tween-80
[14] = dose: 600.0 mg/kg/injection, schedule: Q04DX003 (ip), vehicle: saline with Tween-80
[15] = dose: 100.0 mg/kg/injection, schedule: Q01DX009 (ip), vehicle: water
[16] = dose: 100.0 mg/kg/injection, schedule: Q04DX003 (ip), vehicle: water
[17] = dose: 200.0 mg/kg/injection, schedule: Q01DX009 (ip), vehicle: water
[18] = dose: 200.0 mg/kg/injection, schedule: Q04DX003 (ip), vehicle: water
[19] = dose: 400.0 mg/kg/injection, schedule: Q01DX009 (ip), vehicle: water

Measured: T/C

CCC(CO)NC(=O)/C=C/c1cc(OC)ccc1OC (stereo not given)
inactive: [1] 91 % of control

CCC[CH2][Sn]([CH2]CCC)([CH2]CCC)[S]C(=S)NCCNC(=S)[S][Sn]([CH2]CCC)([CH2]CCC)[CH2]CCC
inactive: dose: 0.78 mg/kg/injection, schedule: Q01DX010 (ip), vehicle: saline 113 % of control | dose: 1.56 mg/kg/injection, schedule: Q01DX010 (ip), vehicle: saline 109 % of control | dose: 3.13 mg/kg/injection, schedule: Q01DX010 (ip), vehicle: saline 109 % of control

Nc1ccc(C(OC(=O)c2cc3ccccc3c(Cc3c(O)c(C(=O)OC(c4ccc(N)cc4)(c4ccc(N)cc4)c4ccc(N)cc4)cc4ccccc34)c2O)(c2ccc(N)cc2)c2ccc(N)cc2)cc1
active: [2] 150 % of control

Cc1ccc(C2(C(=O)O)CC2)cc1
inactive: [3] 100 % of control | [4] 104 % of control | [5] 108 % of control

C[C@@H]1C[C@@]2(O[C@@H]2C)C(=O)O[C@@H]2CCN3CC=C(COC(=O)[C@]1(C)O)[C@H]23
inactive: dose: 20.0 mg/kg/injection, schedule: Q01DX010 (ip), vehicle: carboxymethylcellulose (CMC) 110 % of control | dose: 40.0 mg/kg/injection, schedule: Q01DX010 (ip), vehicle: carboxymethylcellulose (CMC) 100 % of control

C=C1N(c2nc(Cl)nc(Cl)n2)c2ccccc2C1(C)C
inactive: [2] 109 % of control and 111 % of control | dose: 25.0 mg/kg/injection, schedule: Q01DX009 (ip), vehicle: saline with Tween-80 108 % of control and 112 % of control | [6] 116 % of control

O=c1[nH]cc(N(CCCl)CCCl)c(=O)[nH]1
active: dose: 0.38 mg/kg/injection, schedule: Q01DX010 (ip), vehicle: saline 218 % of control | dose: 0.75 mg/kg/injection, schedule: Q01DX010 (ip), vehicle: saline 300 % of control | dose: 1.5 mg/kg/injection, schedule: Q01DX010 (ip), vehicle: saline 204 % of control

COC(=O)CCC(C)C1CCC2C3CCC4CC(SC(=N)N)CCC4(C)C3CCC12C (stereo not given)
inactive: dose: 1.56 mg/kg/injection, schedule: Q01DX009 (ip), vehicle: suspension in saline 93 % of control | dose: 3.13 mg/kg/injection, schedule: Q01DX009 (ip), vehicle: suspension in saline 100 % of control | dose: 6.25 mg/kg/injection, schedule: Q01DX009 (ip), vehicle: suspension in saline 109 % of control | [6] 105 % of control | [7] 103 % of control

CC(=O)NC(CO)(CO)CO
inactive: dose: 100.0 mg/kg/injection, schedule: Q01DX001 (ip), vehicle: saline 100 % of control | dose: 200.0 mg/kg/injection, schedule: Q01DX001 (ip), vehicle: saline 95 % of control

CCSc1ncnc2[nH]ncc12
inactive: dose: 6.25 mg/kg/injection, schedule: Q01DX009 (ip), vehicle: saline + alcohol 101 % of control | dose: 12.5 mg/kg/injection, schedule: Q01DX009 (ip), vehicle: saline + alcohol 100 % of control | dose: 25.0 mg/kg/injection, schedule: Q01DX009 (ip), vehicle: saline + alcohol 100 % of control | dose: 50.0 mg/kg/injection, schedule: Q01DX009 (ip), vehicle: saline + alcohol 98 % of control

CCC(C)OP1(=S)OCC(C)O1 (stereo not given)
inactive: dose: 100.0 mg/kg/injection, schedule: Q04DX002 (ip), vehicle: saline with Tween-80 115 % of control | dose: 200.0 mg/kg/injection, schedule: Q04DX002 (ip), vehicle: saline with Tween-80 106 % of control | dose: 400.0 mg/kg/injection, schedule: Q04DX002 (ip), vehicle: saline with Tween-80 118 % of control

c1c[nH]cn1
inactive: [8] 90 % of control | [9] 95 % of control | [10] 100 % of control | [11] 104 % of control | dose: 400.0 mg/kg/injection, schedule: Q01DX009 (ip), vehicle: saline 118 % of control | [12] 95 % of control

O=C(NC1CCCCC1)N(c1ccccc1)c1nnc(-c2cccc([N+](=O)[O-])c2)s1
inactive: [6] 104 % of control | [7] 95 % of control | [13] 115 % of control

CCC1OCCN1C(C)C (stereo not given)
inactive: dose: 50.0 mg/kg/injection, schedule: Q01DX009 (ip), vehicle: saline 108 % of control | [8] 108 % of control

COc1ccc(Cl)cc1NC1=CC(c2ccc(Cl)cc2)OC1=O (stereo not given)
inactive: dose: 100.0 mg/kg/injection, schedule: Q01DX001 (ip), vehicle: saline with Tween-80 100 % of control | dose: 200.0 mg/kg/injection, schedule: Q01DX001 (ip), vehicle: saline with Tween-80 100 % of control | dose: 400.0 mg/kg/injection, schedule: Q01DX001 (ip), vehicle: saline with Tween-80 95 % of control

Cc1cc(N(CCCl)CCCl)ccc1C=Nc1ccc(F)cc1
active: [5] 150 % of control | [14] 179 % of control

CCCCCCOc1cccc(OCCCC[N+]2(CC)CCCCC2)c1
inactive: dose: 6.25 mg/kg/injection, schedule: Q01DX009 (ip), vehicle: saline 108 % of control

Cc1ccccc1-c1nc2c(N)nc(N)nc2nc1N
active: [13] 163 % of control | [1] 200 % of control
inactive: [7] 122 % of control | dose: 264.0 mg/kg/injection, schedule: Q04DX003 (ip), vehicle: saline with Tween-80 100 % of control and 104 % of control | [5] 118 % of control | [14] 118 % of control

CCS(=O)(=O)c1ncc2cnccn12
inactive: [15] 92 % of control | [16] 95 % of control | [17] 105 % of control | [18] 91 % of control | [19] 100 % of control

CSCCC(NC(C)=O)C(=O)O (stereo not given)
inactive: [8] 96 % of control | [9] 87 % of control | [10] 88 % of control | [11] 87 % of control | [12] 91 % of control

NC(=S)N=Nc1c(O)[nH]c2ccccc12
inactive: dose: 50.0 mg/kg/injection, schedule: Q01DX009 (ip), vehicle: Klucel (hydroxypropylcellulose) (HPC) 119 % of control | dose: 100.0 mg/kg/injection, schedule: Q01DX009 (ip), vehicle: Klucel (hydroxypropylcellulose) (HPC) 118 % of control | dose: 200.0 mg/kg/injection, schedule: Q01DX009 (ip), vehicle: Klucel (hydroxypropylcellulose) (HPC) 115 % of control

Oc1ccc(Nc2ccnc3cc(Cl)ccc23)cc1CN(CCCl)CCCl
active: dose: 1.25 mg/kg/injection, schedule: Q01DX009 (ip), vehicle: saline 177 % of control | dose: 2.5 mg/kg/injection, schedule: Q01DX009 (ip), vehicle: saline 194 % of control | dose: 3.3 mg/kg/injection, schedule: Q04DX003 (ip), vehicle: saline 163 % of control | dose: 5.0 mg/kg/injection, schedule: Q01DX009 (ip), vehicle: saline 150 % of control | dose: 5.0 mg/kg/injection, schedule: Q04DX003 (ip), vehicle: saline 163 % of control | dose: 10.0 mg/kg/injection, schedule: Q04DX003 (ip), vehicle: saline with Tween-80 160 % of control

Clc1ccc2c(Cl)ncnc2c1
inactive: [3] 104 % of control | [4] 109 % of control

NC(Cc1nn[nH]n1)C(=O)O (stereo not given)
inactive: [15] 100 % of control | [16] 97 % of control | [17] 94 % of control | [18] 96 % of control | [19] 94 % of control | dose: 400.0 mg/kg/injection, schedule: Q04DX003 (ip), vehicle: water 90 % of control
